# Laboratory results as given in US20210293825A1, “METHODS FOR PRECISION THERAPEUTIC TARGETING OF HUMAN CANCER CELL MOTILITY AND KITS THEREOF” (UNITED STATES GOVERNMENT AS REPRESENTED BY THE DEPARTMENT …, priority 2018, published 2021).
# Columns and labels:
# [1] = test system: human cord blood CD34+ stem cells; experiment: Hematopoietic stem cell colony formation assay; type: cell-based; settings: colonies at 14 days
# From the text: (§1) FIG. 1a is a schematic flow of probe synthesis and development strategy. […] Values are mean±SEM of a single experiment in replicates of N=4, with similar findings in multiple separate experiments (also N=4). […] Values are mean±SEM of a single experiment in replicates of N=24, with similar findings in a separate experiment (also N=24). *Denotes Student's t test P value <0.05, compared to controls. […] Values are mean±SEM from N>2 separate experiments, each in replicates of N=3. […] Values are the mean±SD number of total, CFU-GM, CFU-GEMM or BFU-E colonies at 14 days after treatment with KBU2046, from a single experiment in replicates of N=2. […] Values are the mean±SD of a single experiment, with similar results seen in a separate experiment, both in replicates of N=2.
# Hematopoietic Stem Cell Colony Formation Assay. Fourteen-day colony formation assays were conducted as described (Bergan, R. et al., Blood 88, 731-41 (1996)), using human cord blood CD34+ stem cells (AllCells Inc.), using MethoCultExpress™ colony growth media (StemCell Technologies Inc.), performed in replicates of N=2.
# MKK4 = molecular target: T1, MKK4 (Homo sapiens, UniProt P45985, S257E/T261E); experiment: Fluorescence-based thermal shift assay, MKK4; type: binding; design: made in house
# T1 sequence (P45985 37-399 S257E/T261E): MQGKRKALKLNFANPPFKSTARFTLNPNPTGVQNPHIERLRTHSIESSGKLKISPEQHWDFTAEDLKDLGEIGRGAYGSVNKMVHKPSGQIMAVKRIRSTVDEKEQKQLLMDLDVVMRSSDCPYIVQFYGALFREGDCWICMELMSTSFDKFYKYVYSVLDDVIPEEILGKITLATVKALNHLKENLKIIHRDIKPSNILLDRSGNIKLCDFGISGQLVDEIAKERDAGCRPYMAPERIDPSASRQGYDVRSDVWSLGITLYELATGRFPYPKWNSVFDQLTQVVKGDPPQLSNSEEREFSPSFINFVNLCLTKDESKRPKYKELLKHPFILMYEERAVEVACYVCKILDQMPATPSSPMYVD
# Procedure: FIG. 16a is a depiction of established MKK4 pathway regulating human PCa cell metastasis. […] Values are the mean±SD (of N=2 replicates) increase in melting temperature (ΔTm) of purified recombinant MKK4 induced by the indicated concentrations of KBU2046 or genistein. […] The indicated concentrations of KBU2046 were added to recombinant activated MKK4, and its ability to phosphorylate kinase dead p38a MAPK (K53A) was measured by Western blot for total (p38 MAPK) and phosphorylated (pp38 MAPK) forms of p38 MAPK. […] PC3-M cells were pre-treated for 24 hours with 50 μM KBU2046 or genistein, as indicated, then with TGFβ, and Western blot performed. These findings are from a single experiment, with similar findings in identical separate experiments, repeated at least once.
# Biophysical and Biochemical Binding Assays. Fluorescent thermal shift (Krishna, S. N. et al., PLoS One 8, e81504 (2013)), isothermal titration calorimetry (Chavez, J. D. et al., Mol Cell Proteomics 12, 1451-67 (2013)), and biolayer interferometry assays (Makowska-Grzyska, M. et al., Biochemistry 51, 6148-63 (2012)), were performed using MEK4EE (37-399, S257E, T261E) cloned into pMCSG7 and KRX Competent E. coli cells (Promega Inc.) and full-length HSP90B and CDC37 vectors and Rosetta BL-21 and BL-21 DE-3 competent E. coli cells, respectively. […]
# [2] = test system: human prostate, breast, colon and lung cancer cells; experiment: Single cell migration (motility) assay; type: cell-based; settings: 10 μM, 3 days
# From the text: as §1
# Cell Migration Assays. Single cell motility assays were conducted by adding 10^4 cells to 35 mm tissue culture dishes (BD Falcon) coated with collagen I (BD Biosciences), incubating at 37° C. in 5% CO2, performing time-lapse imaging using a Biostation (Nikon Instruments), tracking the path of N≥35 cells using ImageJ software and the Manual Tracker plug-in, and using Chemotaxis and Migration Tool plug-in for data analysis.
# [3] = test system: estrogen-responsive genes in MCF-7 cells; experiment: Induction of estrogen-responsive genes (qRT/PCR); type: cell-based, human
# From the text: as §1
# Quantitative Reverse Transcriptase Polymerase Chain Reaction. RNA was isolated and qRT/PCR was performed as described (Ding, Y. et al., J Biomol Tech 18, 321-30 (2007)), analyzed by the 2^−ΔΔCt method (Livak, K. J. et al., Methods 25, 402-8 (2001)), using primer/probes sets (ABI), HSP90α (Hs00743767_sH), HSP90β (Hs00427665_g1), trefoil factor 1 (TFF1; Hs00907239 ml), cathepsin D (CTSD; Hs00157205_m1), progesterone receptor (PGR; Hs01556702 ml) and GAPDH (Hs99999905_m1). Assays were repeated, each in replicates of N=2.
# [4] = Histologic examination of tissue / systemic off-target effects; type: in vivo, Balb/c athymic mice
# Procedure: Histologic examination of tissue. Organs of athymic male mice stained with H&E, Trichrome or Giemsa were microscopically examined by a mouse pathologist in a blinded fashion, and toxicity scored using an established semi-quantitative histological scoring system (Knodell, R. G. et al., Hepatology 1, 431-5 (1981)) (FIG. 14). The following clinical chemistry parameters were measured in blood of CD1 male and female mice by Charles River Research Animal Diagnostic Services: cholesterol, triglycerides, alanine aminotransferase (ALT), aspartate aminotransferase (AST), total bilirubin, glucose, phosphorus, total protein, calcium, blood urea nitrogen (BUN), creatinine, albumin, Na, K, Cl, white blood cells (with differential), red blood cells, hemoglobin, and platelets.
# After 35 days of treatment, the following organs were harvested at necropsy, and stained with H&E (alternative staining methods as indicated): heart, lungs, esophagus, stomach, colon, small intestine, liver (Trichrome staining), kidneys (Trichrome staining), adrenals, bladder, prostate, spleen, pancreas, brain, testes, and bone marrow and peripheral blood (Giemsa staining). Organs were examined for damage using a semi-quantitative histological scoring system, as described (Knodell, R. G. et al., Hepatology 1, 431-5 (1981)). […] Note that mice were immunocompromised, and that changes in the liver reflected episodic and minor foci of necrosis, consistent with a prior resolved infection; clinically, mice were all healthy. The graph above depicts the scoring of liver lesions, with each data point representing a single mouse.
smiles,measurement,setting,value
"O=C1c2ccccc2OCC1c1ccc(F)cc1 (racemic) [KBU2046, (±)-3(4-fluorophenyl)chroman-4-one]",toxicity to human bone marrow stem cells,[1],not toxic
same,binding to MKK4,MKK4,did not bind to MKK4
same,inhibition of cell migration,[2],inhibited the migration
same,activation of estrogen-responsive genes,[3],did not activate estrogen-responsive genes
same,changes in the liver,[4]; 35 days of treatment in chow,not increased by KBU2046 treatment
same,organ damage (histological scoring),[4]; 35 days of treatment in chow,"No organ damage was observed, except in the livers of both control and treatment mice"
same,"off-target effects (tumor growth, behavior, weight, histology, serum chemistry)","[4]; mouse, in vivo",failed to identify KBU2046-associated off-target effects
